The conditions of data set [1]: cited from earlier work; for Rate of dissolution in H2O at 25° C.: grade in words.
For data set [2] the following is noted: Prakash et al., 2008, cited from earlier work.
For data set [3] the following is noted: room temperature (25° C.); related art; cited from earlier work.
Data set [4] in a line: Water solubility in RO water at room temperature (25° C.). The following applies: g per 100 g solvent. The data set is classed as physicochemical. On the procedure:
Hereinafter, unless specified otherwise, the solubility of material is determined in RO (reverse osmosis) water at room temperature (25° C.). Where the solubility is expressed as “%” it to be understood as number of grams of material soluble in 100 grams of solvent.
The material is deemed soluble at certain concentration if the produced solution has <10 FAU (Formazin Attenuation Unit) turbidity value.

Read-outs that look alike come from different tables or passages of the source. Bounds are passed on as bounds.

The text below walks through data of patent publication US12193460B2, “Highly soluble steviol glycosides” (PureCircle USA Inc., priority 2016, dated 2025).

`C=C1C[C@@]23CC[C@H]4[C@@](C)(CCC[C@@]4(C)C(=O)O[C@@H]4O[C@H](CO)[C@@H](O)[C@H](O)[C@H]4O)[C@@H]2CC[C@]1(O[C@@H]1O[C@H](CO)[C@@H](O)[C@H](O[C@@H]2O[C@H](CO)[C@@H](O)[C@H](O)[C@H]2O)[C@H]1O[C@@H]1O[C@H](CO)[C@@H](O)[C@H](O)[C@H]1O)C3` [Form 1, Rebaudioside A]: in data set [1], the “Rate of dissolution in H2O at 25° C.” value is “Very low”. For the same compound, the “Rate of dissolution in H2O at 25° C. (% dissolved)” value (from here on “Rate of dissolution … (% dissolved)”) in data set [1] (in 60 minutes) is reported as “(<0.2% in 60”. The “solubility (in words)” value in data set [2] (listed as hydrate form of Rebaudioside A) was “lowest solubility”.
As for `C=C1C[C@@]23CC[C@H]4[C@@](C)(CCC[C@@]4(C)C(=O)O[C@@H]4O[C@H](CO)[C@@H](O)[C@H](O)[C@H]4O)[C@@H]2CC[C@]1(O[C@@H]1O[C@H](CO)[C@@H](O)[C@H](O[C@@H]2O[C@H](CO)[C@@H](O)[C@H](O)[C@H]2O)[C@H]1O[C@@H]1O[C@H](CO)[C@@H](O)[C@H](O)[C@H]1O)C3` [Form 2, Rebaudioside A], the “Rate of dissolution in H2O at 25° C.” value in data set [1] is “Intermediate”. Further, in data set [1] (in 5 minutes), the “Rate of dissolution … (% dissolved)” value is given as “(<30% in 5”.
Regarding `C=C1C[C@@]23CC[C@H]4[C@@](C)(CCC[C@@]4(C)C(=O)O[C@@H]4O[C@H](CO)[C@@H](O)[C@H](O)[C@H]4O)[C@@H]2CC[C@]1(O[C@@H]1O[C@H](CO)[C@@H](O)[C@H](O[C@@H]2O[C@H](CO)[C@@H](O)[C@H](O)[C@H]2O)[C@H]1O[C@@H]1O[C@H](CO)[C@@H](O)[C@H](O)[C@H]1O)C3` [Form 3, Rebaudioside A], in data set [1], the “Rate of dissolution in H2O at 25° C.” value is “High”. In addition, in data set [1] (in 5 minutes), the “Rate of dissolution … (% dissolved)” value is greater than 30%.
For the compound `C=C1C[C@@]23CC[C@H]4[C@@](C)(CCC[C@@]4(C)C(=O)O[C@@H]4O[C@H](CO)[C@@H](O)[C@H](O)[C@H]4O)[C@@H]2CC[C@]1(O[C@@H]1O[C@H](CO)[C@@H](O)[C@H](O[C@@H]2O[C@H](CO)[C@@H](O)[C@H](O)[C@H]2O)[C@H]1O[C@@H]1O[C@H](CO)[C@@H](O)[C@H](O)[C@H]1O)C3` [Form 4, Rebaudioside A], the “Rate of dissolution in H2O at 25° C.” value in data set [1] was “High”. Moreover, the “Rate of dissolution … (% dissolved)” value in data set [1] (in 5 minutes) is listed as greater than 35%. Moreover, the “solubility (in words)” value in data set [2] (listed as rebaudioside A amorphous forms) was “high solubility”.
As for `C=C1C[C@@]23CC[C@H]4[C@@](C)(CCC[C@@]4(C)C(=O)O[C@@H]4O[C@H](CO)[C@@H](O)[C@H](O)[C@H]4O[C@@H]4O[C@H](CO)[C@@H](O)[C@H](O)[C@H]4O)[C@@H]2CC[C@]1(O[C@@H]1O[C@H](CO)[C@@H](O)[C@H](O[C@@H]2O[C@H](CO)[C@@H](O)[C@H](O)[C@H]2O)[C@H]1O[C@@H]1O[C@H](CO)[C@@H](O)[C@H](O)[C@H]1O)C3` [Rebaudioside D], in data set [3], the water solubility entry is given as “less than 0.05%”.
Turning to `C=C1C[C@@]23CC[C@H]4[C@@](C)(CCC[C@@]4(C)C(=O)O[C@@H]4O[C@H](CO)[C@@H](O)[C@H](O[C@@H]5O[C@H](CO)[C@@H](O)[C@H](O)[C@H]5O)[C@H]4O[C@@H]4O[C@H](CO)[C@@H](O)[C@H](O)[C@H]4O)[C@@H]2CC[C@]1(O[C@@H]1O[C@H](CO)[C@@H](O)[C@H](O[C@@H]2O[C@H](CO)[C@@H](O)[C@H](O)[C@H]2O)[C@H]1O[C@@H]1O[C@H](CO)[C@@H](O)[C@H](O)[C@H]1O)C3` [Rebaudioside M], in data set [4] (listed as Crystalline Rebaudioside M), the solubility in water is listed as 0%-0.1. The water solubility result in data set [3] is “about 0.1%”.
Regarding `C=C1C[C@@]23CC[C@H]4[C@@](C)(CCC[C@@]4(C)C(=O)O[C@@H]4O[C@H](CO)[C@@H](O)[C@H](O[C@@H]5O[C@H](CO)[C@@H](O)[C@H](O)[C@H]5O)[C@H]4O[C@@H]4O[C@H](CO)[C@@H](O)[C@H](O)[C@H]4O)[C@@H]2CC[C@]1(O[C@@H]1O[C@H](CO)[C@@H](O)[C@H](O[C@@H]2O[C@H](CO)[C@@H](O)[C@H](O)[C@H]2O)[C@H]1O[C@@H]1O[C@H](CO)[C@@H](O)[C@H](O)[C@H]1O)C3` [rebaudioside M], the solubility in water in data set [4] was 2%.
